Laboratory results taken from PubChem BioAssay AID2060606 (Molecular Pharmacology Branch, DTP, NCI, 2025).

System: 922993-354-T-J3-PDC complex spheroids, viability, % test/control
Test: Anticancer human tumor 922993-354-T-J3-PDC patient-derived endometrial carcinoma cell line growth inhibition [CLK]
Settings: for IC50: curve of first compound; for viability, T/C: stronger effect = lower value
Summary of the method: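 Multi-cell-type spheroids combined patient-derived tumor cells with HUVEC endothelial cells and human mesenchymal stem cells. Paired agents were dosed in half-log steps down from about clinical Cmax, or from 10 microM where Cmax was unknown.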

[1] = second compound 0.0316 µM, first compound 0.00949 µM
[2] = second compound 0.0316 µM, first compound 0.03 µM
[3] = second compound 0.0316 µM, first compound 0.0949 µM
[4] = second compound 0.0316 µM, first compound 0.3 µM
[5] = second compound 0.1 µM, first compound 0.00949 µM
[6] = second compound 0.1 µM, first compound 0.03 µM
[7] = second compound 0.1 µM, first compound 0.0949 µM
[8] = second compound 0.1 µM, first compound 0.3 µM
[9] = second compound 0.316 µM, first compound 0.00949 µM
[10] = second compound 0.316 µM, first compound 0.03 µM
[11] = second compound 0.316 µM, first compound 0.0949 µM
[12] = second compound 0.316 µM, first compound 0.3 µM
[13] = second compound 1 µM, first compound 0.00949 µM
[14] = second compound 1 µM, first compound 0.03 µM
[15] = second compound 1 µM, first compound 0.0949 µM
[16] = second compound 1 µM, first compound 0.3 µM
[17] = second compound 3.16 µM, first compound 0.00949 µM
[18] = second compound 3.16 µM, first compound 0.03 µM
[19] = second compound 3.16 µM, first compound 0.0949 µM
[20] = second compound 3.16 µM, first compound 0.3 µM
[21] = second compound 10 µM, first compound 0.00949 µM
[22] = second compound 10 µM, first compound 0.03 µM
[23] = second compound 10 µM, first compound 0.0949 µM
[24] = second compound 10 µM, first compound 0.3 µM
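Further: spheroids exposed to the agents for 7 days before readout.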

## C=CC(=O)Nc1cc(Nc2nccc(-c3cn(C)c4ccccc34)n2)c(OC)cc1N(C)CCN(C)C + CN1CCN(c2cc(C(=O)Nc3cc4cc(-c5cnn(C)c5)ccc4cn3)ccn2)CC1
Second compound 0.0316 µM
  IC50: > 300 nM
Second compound 0.1 µM
  IC50: > 300 nM
Second compound 0.316 µM
  IC50: < 0.949 nM
Second compound 1 µM
  IC50: < 0.949 nM
Second compound 3.16 µM
  IC50: < 0.949 nM
Second compound 10 µM
  IC50: < 0.949 nM
Second compound 0.0316 µM, first compound 0.000949 µM
  viability, T/C: 98.9%
Second compound 0.0316 µM, first compound 0.003 µM
  viability, T/C: 98.4%
[1]
  viability, T/C: 101%
[2]
  viability, T/C: 108%
[3]
  viability, T/C: 97.4%
[4]
  viability, T/C: 73.1%
Second compound 0.1 µM, first compound 0.000949 µM
  viability, T/C: 96.7%
Second compound 0.1 µM, first compound 0.003 µM
  viability, T/C: 97.7%
[5]
  viability, T/C: 83.7%
[6]
  viability, T/C: 69%
[7]
  viability, T/C: 81%
[8]
  viability, T/C: 63.3%
Second compound 0.316 µM, first compound 0.000949 µM
  viability, T/C: 41.8%
Second compound 0.316 µM, first compound 0.003 µM
  viability, T/C: 45.5%
[9]
  viability, T/C: 44.2%
[10]
  viability, T/C: 22.8%
[11]
  viability, T/C: 31.7%
[12]
  viability, T/C: 27.8%
Second compound 1 µM, first compound 0.000949 µM
  viability, T/C: 0.12%
Second compound 1 µM, first compound 0.003 µM
  viability, T/C: 0.13%
[13]
  viability, T/C: 1.12%
[14]
  viability, T/C: 0.1%
[15]
  viability, T/C: 0.1%
[16]
  viability, T/C: 1.55%
Second compound 3.16 µM, first compound 0.000949 µM
  viability, T/C: 0.11%
Second compound 3.16 µM, first compound 0.003 µM
  viability, T/C: 0.14%
[17]
  viability, T/C: 0.14%
[18]
  viability, T/C: 0.7%
[19]
  viability, T/C: 0.13%
[20]
  viability, T/C: 1.62%
Second compound 10 µM, first compound 0.000949 µM
  viability, T/C: 0.15%
Second compound 10 µM, first compound 0.003 µM
  viability, T/C: 0.17%
[21]
  viability, T/C: 1.16%
[22]
  viability, T/C: 0.16%
[23]
  viability, T/C: 1.05%
[24]
  viability, T/C: 0.62%

## NC(=O)C(=Cn1cnc(-c2cc(C(F)(F)F)cc(C(F)(F)F)c2)n1)c1cncnc1 + CN1CCN(c2cc(C(=O)Nc3cc4cc(-c5cnn(C)c5)ccc4cn3)ccn2)CC1
Second compound 0.0316 µM
  IC50: 229 nM
Second compound 0.1 µM
  IC50: 173 nM
Second compound 0.316 µM
  IC50: < 9.49 nM
Second compound 1 µM
  IC50: < 9.49 nM
Second compound 3.16 µM
  IC50: < 9.49 nM
Second compound 10 µM
  IC50: < 9.49 nM
[1]
  viability, T/C: 119%
[2]
  viability, T/C: 115%
[3]
  viability, T/C: 82.1%
[4]
  viability, T/C: 40.1%
Second compound 0.0316 µM, first compound 0.949 µM
  viability, T/C: 30.6%
Second compound 0.0316 µM, first compound 3 µM
  viability, T/C: 41.2%
[5]
  viability, T/C: 118%
[6]
  viability, T/C: 118%
[7]
  viability, T/C: 80.7%
[8]
  viability, T/C: 21.7%
Second compound 0.1 µM, first compound 0.949 µM
  viability, T/C: 21.5%
Second compound 0.1 µM, first compound 3 µM
  viability, T/C: 20%
[9]
  viability, T/C: 48.8%
[10]
  viability, T/C: 32.3%
[11]
  viability, T/C: 4.78%
[12]
  viability, T/C: 1.32%
Second compound 0.316 µM, first compound 0.949 µM
  viability, T/C: 0.16%
Second compound 0.316 µM, first compound 3 µM
  viability, T/C: 1.43%
[13]
  viability, T/C: 0.11%
[14]
  viability, T/C: 0.75%
[15]
  viability, T/C: 0.12%
[16]
  viability, T/C: 0.07%
Second compound 1 µM, first compound 0.949 µM
  viability, T/C: 0.71%
Second compound 1 µM, first compound 3 µM
  viability, T/C: 2.13%
[17]
  viability, T/C: 0.1%
[18]
  viability, T/C: 0.13%
[19]
  viability, T/C: 0.17%
[20]
  viability, T/C: 1.63%
Second compound 3.16 µM, first compound 0.949 µM
  viability, T/C: 1.45%
Second compound 3.16 µM, first compound 3 µM
  viability, T/C: 2.46%
[21]
  viability, T/C: 0.14%
[22]
  viability, T/C: 0.16%
[23]
  viability, T/C: 1.88%
[24]
  viability, T/C: 0.19%
Second compound 10 µM, first compound 0.949 µM
  viability, T/C: 0.8%
Second compound 10 µM, first compound 3 µM
  viability, T/C: 2.01%

## Nc1ccccc1NC(=O)c1ccc(CNC(=O)OCc2cccnc2)cc1 + CN1CCN(c2cc(C(=O)Nc3cc4cc(-c5cnn(C)c5)ccc4cn3)ccn2)CC1
Second compound 0.0316 µM
  IC50: > 10000 nM
Second compound 0.1 µM
  IC50: 4690 nM
Second compound 0.316 µM
  IC50: < 31.6 nM
Second compound 1 µM
  IC50: < 31.6 nM
Second compound 3.16 µM
  IC50: < 31.6 nM
Second compound 10 µM
  IC50: < 31.6 nM
Second compound 0.0316 µM, first compound 0.0316 µM
  viability, T/C: 111%
Second compound 0.0316 µM, first compound 0.1 µM
  viability, T/C: 114%
Second compound 0.0316 µM, first compound 0.316 µM
  viability, T/C: 103%
Second compound 0.0316 µM, first compound 1 µM
  viability, T/C: 90.3%
Second compound 0.0316 µM, first compound 3.16 µM
  viability, T/C: 62%
Second compound 0.0316 µM, first compound 10 µM
  viability, T/C: 51.9%
Second compound 0.1 µM, first compound 0.0316 µM
  viability, T/C: 103%
Second compound 0.1 µM, first compound 0.1 µM
  viability, T/C: 97.2%
Second compound 0.1 µM, first compound 0.316 µM
  viability, T/C: 83.8%
Second compound 0.1 µM, first compound 1 µM
  viability, T/C: 60.1%
Second compound 0.1 µM, first compound 3.16 µM
  viability, T/C: 59.6%
Second compound 0.1 µM, first compound 10 µM
  viability, T/C: 41.7%
Second compound 0.316 µM, first compound 0.0316 µM
  viability, T/C: 39.8%
Second compound 0.316 µM, first compound 0.1 µM
  viability, T/C: 29.3%
Second compound 0.316 µM, first compound 0.316 µM
  viability, T/C: 31.7%
Second compound 0.316 µM, first compound 1 µM
  viability, T/C: 33%
Second compound 0.316 µM, first compound 3.16 µM
  viability, T/C: 6.16%
Second compound 0.316 µM, first compound 10 µM
  viability, T/C: 1.51%
Second compound 1 µM, first compound 0.0316 µM
  viability, T/C: 0.15%
Second compound 1 µM, first compound 0.1 µM
  viability, T/C: 1.32%
Second compound 1 µM, first compound 0.316 µM
  viability, T/C: 0.79%
Second compound 1 µM, first compound 1 µM
  viability, T/C: 0.09%
Second compound 1 µM, first compound 3.16 µM
  viability, T/C: 0.26%
Second compound 1 µM, first compound 10 µM
  viability, T/C: 1.83%
Second compound 3.16 µM, first compound 0.0316 µM
  viability, T/C: 0.61%
Second compound 3.16 µM, first compound 0.1 µM
  viability, T/C: 0.12%
Second compound 3.16 µM, first compound 0.316 µM
  viability, T/C: 1.29%
Second compound 3.16 µM, first compound 1 µM
  viability, T/C: 0.65%
Second compound 3.16 µM, first compound 3.16 µM
  viability, T/C: 1.19%
Second compound 3.16 µM, first compound 10 µM
  viability, T/C: 1.23%
Second compound 10 µM, first compound 0.0316 µM
  viability, T/C: 0.11%
Second compound 10 µM, first compound 0.1 µM
  viability, T/C: 0.14%
Second compound 10 µM, first compound 0.316 µM
  viability, T/C: 2.33%
Second compound 10 µM, first compound 1 µM
  viability, T/C: 0.14%
Second compound 10 µM, first compound 3.16 µM
  viability, T/C: 2.41%
Second compound 10 µM, first compound 10 µM
  viability, T/C: 2.96%
